{"source": "patent US20240158355A1", "about": "“BET SUBFAMILY INHIBITORS AND METHODS USING SAME” (Baylor College of Medicine, priority 2021, published 2024)", "key": {"mice": {"test_system": "mice", "settings": "cited from earlier work"}, "[1]": {"settings": "mouse, in vivo; cited from earlier work"}, "BRD4-BD2": {"target": "BRD4-BD2 (Homo sapiens (Human), UniProt O60885)", "settings": "cited from earlier work"}, "BD2": {"test_system": "BD2", "settings": "cited from earlier work"}, "[2]": {"assay": "Metabolic stability assay in mouse liver microsomes", "assay_type": "in vitro ADME", "settings": "for half-life at 2 μM: 0.5 mg protein/mL, 37° C., read-out: MLM t1/2", "protocol": "(§1) Compounds 3-10, 15, 17, and 20-22 (2.0 μM) were incubated in the mouse or human liver microsomes (0.5 mg protein/mL) at 37° C. […] The reaction mixtures were centrifuged at rcf 15,000 for 15 min. […] The column temperature was maintained at 40° C. […] Q Exactive MS was operated in positive or negative mode with electrospray ionization."}, "BRDT-BD1": {"target": "BRDT-BD1 (Homo sapiens (Human), UniProt Q58F21)", "assay": "AlphaScreen bromodomain proximity assay (competition with biotinylated (+)-JQ1), BRDT-BD1", "assay_type": "binding", "settings": "NE: no effect at 10 μM"}, "His-BRDT-BD2": {"target": "His-BRDT-BD2 (Homo sapiens (Human), UniProt Q58F21)", "settings": "0 = theoretically present in the library but not detected in the sequencing data"}, "BRDT-BD2 [3]": {"target": "T1, BRDT-BD2 (Homo sapiens (Human), UniProt Q58F21)", "assay": "AlphaScreen bromodomain proximity assay (competition with biotinylated (+)-JQ1), BRDT-BD2", "assay_type": "binding"}, "[4]": {"assay": "Metabolic stability assay in human liver microsomes", "assay_type": "in vitro ADME", "settings": "for half-life at 2 μM: read-out: HLM t1/2; for human microsomal stability: in words", "protocol": "as §1"}, "bromodomains": {"test_system": "bromodomains", "settings": "BROMOscan competition binding", "description": "(§2) Binding constants (Kds) were calculated with a standard dose-response curve using the Hill equation:\n1+(KdHill Slope/DoseHill Slope)\nThe Hill Slope was set to −1.\n(§3) Curves were fitted using a non-linear least square fit with the Levenberg-Marquardt algorithm."}, "BRDT-BD2 [5]": {"target": "T1, BRDT-BD2", "settings": "BromoKdELECT dose-response", "description": "as §2\n1+(KdHill Slope/DoseHill Slope)\nThe Hill Slope was set to −1.\nas §3"}, "[6]": {"settings": "data >60 min is an extrapolated estimate"}, "[7]": {"settings": "2.0 μM, 0.5 mg protein/mL, 37° C."}}, "note": "pIC50: −log10 of the molar value.", "data": [{"smiles": "Cc1sc2c(c1C)C(c1ccc(Cl)cc1)=N[C@@H](CC(=O)OC(C)(C)C)c1nnc(C)n1-2", "note": "[(+)-JQ1, tert-butyl (S)-2-(4-(4-chlorophenyl)-2,3,9-trimethyl-6H-thieno[3,2-f][1,2,4]triazolo[4,3-a][1,4]diazepin-6-yl)acetate]", "values": [{"measurement": "contraceptive effect", "setting": "mice", "result": "complete and reversible contraceptive effect"}, {"measurement": "bioavailable across the blood-testis boundary", "setting": "[1]", "result": 100, "unit": "%"}]}, {"smiles": "CCNC(=O)c1cc2c(-c3cc(C(C)(C)O)ccc3Oc3c(C)cc(F)cc3C)cn(C)c(=O)c2[nH]1", "note": "[ABBV-744]", "values": [{"measurement": "selectivity for BRD4-BD2", "setting": "BRD4-BD2", "result": "95-290 fold"}]}, {"smiles": "CC(=O)Nc1c(F)cc(C(=O)N[C@H]2CC[C@H](O)CC2)cc1O[C@@H](C)c1ccccc1", "note": "[GSK046]", "values": [{"measurement": "selectivity for BD2 over BD1", "setting": "BD2", "result": "> 300", "unit": "fold"}]}, {"smiles": "CNC(=O)c1ccc(C(=O)Nc2cc(NC(=O)c3ccc4c(c3)c(-c3cc5ccccc5n3C)nn4C)ccc2OC)cc1", "note": "[compound 3, N^1-(2-Methoxy-5-(1-methyl-3-(1-methyl-1H-indol-2-yl)-1H-indazole-5-carboxamido)phenyl)-N^4-methylterephthalamide]", "values": [{"measurement": "half-life at 2 μM", "setting": "[2]", "result": 31, "unit": "min"}, {"measurement": "pIC50", "setting": "BRDT-BD1", "result": "< 5.00"}, {"measurement": "Count (observed molecule count in the DEC-Tec screen against BRDT-BD2)", "setting": "His-BRDT-BD2", "result": 1039}, {"measurement": "pIC50", "setting": "BRDT-BD2 [3]", "result": 7.66}, {"measurement": "half-life at 2 μM", "setting": "[4]; [6]", "result": 87, "unit": "min"}]}, {"smiles": "CNC(=O)c1ccc(C(=O)Nc2cc(NC(=O)c3ccc4c(c3)c(-c3ccc(N)cc3C)nn4C)ccc2OC)cc1", "note": "[compound 4, N^1-(5-(3-(4-Amino-2-methylphenyl)-1-methyl-1H-indazole-5-carboxamido)-2-methoxyphenyl)-N^4-methylterephthalamide]", "values": [{"measurement": "half-life at 2 μM", "setting": "[2]", "result": 14, "unit": "min"}, {"measurement": "pIC50", "setting": "BRDT-BD1", "result": "< 5.00"}, {"measurement": "Count (observed molecule count in the DEC-Tec screen against BRDT-BD2)", "setting": "His-BRDT-BD2", "result": 838}, {"measurement": "pIC50", "setting": "BRDT-BD2 [3]", "result": 7.92}, {"measurement": "half-life at 2 μM", "setting": "[4]; [6]", "result": 100, "unit": "min"}]}, {"smiles": "CNC(=O)c1ccc(C(=O)Nc2cc(NC(=O)c3ccc4c(c3)c(-c3ccc(C)cc3C)nn4C)ccc2OC)cc1", "note": "[compound 5, N^1-(5-(3-(2,4-Dimethylphenyl)-1-methyl-1H-indazole-5-carboxamido)-2-methoxyphenyl)-N^4-methylterephthalamide]", "values": [{"measurement": "half-life at 2 μM", "setting": "[2]", "result": 20, "unit": "min"}, {"measurement": "pIC50", "setting": "BRDT-BD1", "result": "< 5.00"}, {"measurement": "Count (observed molecule count in the DEC-Tec screen against BRDT-BD2)", "setting": "His-BRDT-BD2", "result": 515}, {"measurement": "pIC50", "setting": "BRDT-BD2 [3]", "result": 7.59}, {"measurement": "half-life at 2 μM", "setting": "[4]; [7]", "result": 18, "unit": "min"}]}, {"smiles": "CNC(=O)c1ccc(C(=O)Nc2cc(NC(=O)c3ccc4c(c3)c(-c3ccccc3C)nn4C)ccc2OC)cc1", "note": "[compound 6, N^1-(2-Methoxy-5-(1-methyl-3-(o-tolyl)-1H-indazole-5-carboxamido)phenyl)-N^4-methylterephthalamide]", "values": [{"measurement": "half-life at 2 μM", "setting": "[2]", "result": 40, "unit": "min"}, {"measurement": "pIC50", "setting": "BRDT-BD1", "result": 5.20}, {"measurement": "Count (observed molecule count in the DEC-Tec screen against BRDT-BD2)", "setting": "His-BRDT-BD2", "result": 0}, {"measurement": "pIC50", "setting": "BRDT-BD2 [3]", "result": 7.21}, {"measurement": "half-life at 2 μM", "setting": "[4]; [7]", "result": 17, "unit": "min"}]}, {"smiles": "CNC(=O)c1ccc(C(=O)Nc2cc(NC(=O)c3ccc4c(c3)c(-c3ccc(N)cc3)nn4C)ccc2OC)cc1", "note": "[compound 7, N^1-(5-(3-(4-Aminophenyl)-1-methyl-1H-indazole-5-carboxamido)-2-methoxyphenyl)-N^4-methylterephthalamide]", "values": [{"measurement": "half-life at 2 μM", "setting": "[2]", "result": 51, "unit": "min"}, {"measurement": "pIC50", "setting": "BRDT-BD1", "result": "< 5.00"}, {"measurement": "Count (observed molecule count in the DEC-Tec screen against BRDT-BD2)", "setting": "His-BRDT-BD2", "result": 63}, {"measurement": "pIC50", "setting": "BRDT-BD2 [3]", "result": 7.82}, {"measurement": "half-life at 2 μM", "setting": "[4]; [6]", "result": 250, "unit": "min"}]}, {"smiles": "CNC(=O)c1ccc(C(=O)Nc2cc(NC(=O)c3ccc4c(c3)c(-c3ccc(N)cc3C)nn4C)ccc2C)cc1", "note": "[compound 9, N^1-(5-(3-(4-Amino-2-methylphenyl)-1-methyl-1H-indazole-5-carboxamido)-2-methylphenyl)-N^4-methylterephthalamide]", "values": [{"measurement": "human microsomal stability", "setting": "[4]", "result": "high metabolic stability"}]}, {"smiles": "CNC(=O)c1ccc(C(=O)Nc2cc(NC(=O)c3ccc4c(c3)c(-c3ccc(N)nc3)nn4C)ccc2C)cc1", "note": "[compound 10, N^1-(5-(3-(6-Aminopyridin-3-yl)-1-methyl-1H-indazole-5-carboxamido)-2-methylphenyl)-N^4-methylterephthalamide]", "values": [{"measurement": "mouse microsomal stability", "setting": "[2]; in words", "result": "high metabolic stability"}, {"measurement": "pIC50", "setting": "BRDT-BD1", "result": "< 5.00"}, {"measurement": "Count (observed molecule count in the DEC-Tec screen against BRDT-BD2)", "setting": "His-BRDT-BD2", "result": 3}, {"measurement": "pIC50", "setting": "BRDT-BD2 [3]", "result": 7.77}, {"measurement": "human microsomal stability", "setting": "[4]", "result": "high metabolic stability"}]}, {"smiles": "CC(=O)Nc1cc(NC(=O)c2ccc3c(c2)c(-c2ccc(N)cc2C)nn3C)ccc1C", "note": "[compound 20, N-(3-Acetamido-4-methylphenyl)-3-(4-amino-2-methylphenyl)-1-methyl-1H-indazole-5-carboxamide]", "values": [{"measurement": "binding selectivity across bromodomains", "setting": "bromodomains", "result": "potent and selective binding to only the second bromodomains within the BET subfamily"}, {"measurement": "potency at binding BRDT-BD2 relative to (+)-JQ1", "setting": "BRDT-BD2 [5]", "result": "more than 20 fold"}, {"measurement": "pIC50", "setting": "BRDT-BD1", "result": "< 5.00"}, {"measurement": "pIC50", "setting": "BRDT-BD2 [3]", "result": 8.10}]}]}
